Reference: patent publication US20260198495A1, “BINARY INSECTICIDE COMPOSITION AND USE THEREOF” (SHENYANG SINOCHEM AGROCHEMICALS R & D CO., LTD., priority 2022, published 2026)

Tests used:
Assay type in all cases: in vivo
[1] = system: 3rd-instar larvae of Pyrausta nubilalis Hubern; test: Synergism assay (Bliss) of I-72 + abamectin, spinosad, spinetoram, emamectin benzoate, Example 6, Table 6; conditions: Ostrinia nubilalis, 72 h, read-out: Mortality rate (%)
Procedure: Test subject: 3rd-instar larvae of Pyrausta nubilalis Hubern, a sensitive strain reared indoors.
Test conditions: temperature: 24-26° C., humidity: RH 60%, and illumination: L:D=14:10
Preparation method: the test pesticides were accurately weighed respectively with an electronic analytical balance. After the two technical materials were respectively added into an appropriate amount of solvent and completely dissolved, the stock solution of the required concentration was prepared with water containing 0.1% Tween 80. The stock solutions of the two active ingredients were mixed in a certain ratio to prepare a mixed solution, which was then diluted respectively into a series of pesticide solutions with a certain concentration gradient according to the experimental design dosage.
Experimental method: the artificial diet-pesticide film method was adopted. A standard clean 24-well culture plate was selected. 1 ml of artificial diet was added to each well. After the diet cooled and solidified, a quantitative amount of a pesticide solution was added to the culture plate using a continuous sampler, and then it was air-dried naturally in the shade. The standard test insects were introduced, with 1 insect in each well, a total of 48 insects. The treated test insects were placed in an observation room under certain conditions. The reaction of the test insects was regularly observed, and the number of dead and live insects was investigated 72 h later.
The evaluation method adopted was the Bliss method. This method is applicable to the qualitative screening of insecticidal compositions. According to the concept of independent joint action he proposed, Bliss believes that the theoretical mortality rate P when insecticides are used in combination can be calculated by the following formula: […]
Pm is the mortality rate (%) of the target when the first active ingredient is at a concentration of m; and Pn is the mortality rate (%) of the target when the second active ingredient is at a concentration of n.
If the actual mortality rate of the target after the two active ingredients are mixed at a certain concentration is greater than theoretical mortality rate P, it is determined that the two active ingredients have a synergistic effect when used in combination at the set concentration, and otherwise, they have an antagonistic effect.

[2] = system: 2nd-instar nymphs of Frankliniella occidentalis Pergande; test: Joint toxicity of I-72 + spinetoram, leaf spraying, Example 11, Table 11; conditions: Frankliniella occidentalis, kidney bean leaf spraying, 48 h, A = compound I-72, B = spinetoram, read-out: LC50
Source text: Test subject: 2nd-instar nymphs of Frankliniella occidentalis Pergande, a sensitive strain reared indoors.
Experimental method: the spraying method was adopted. The kidney bean leaves cultivated in the greenhouse were selected, and the petioles were wrapped with moist degreased cotton and sealing film. They were evenly sprayed with the pesticide solution in the order from low dosage to high dosage according to the experimental design, placed in a 6-cm-diameter Petri dish with filter paper. After natural air-drying in the shade, the test insects were introduced, with 20 insects for each treatment and 3 replicates. In addition, a blank control was set up. The number of dead and live insects was investigated 48 hours later. The corrected mortality rate was calculated using the Abbott's formula, and the DPS data processing software was used for statistical analysis to calculate the toxicities (LC50 values) of the single test pesticides and the mixtures under the test ratios.
The test conditions, the preparation of the pesticide solution and the evaluation method were the same as those in Example 1.

[3] = system: 2nd-instar larvae of Chilo suppressalis (Walker); test: Joint toxicity of I-72 + carbaryl, rice stalk spraying, Example 23, Table 23
Source text: In addition, a blank control was set up.
The treated test materials were placed in an observation room, and the temperature, humidity and illumination of the observation room could be adjusted as needed.

[4] = system: Myzus persicae (Sulzer) nymphs; test: Joint toxicity of I-72 + cyantraniliprole, Example 59, Table 59; conditions: A = compound I-72, B = cyantraniliprole, cabbage leaf spraying, 48 hours, read-out: LC50
Procedure: Test target: Myzus persicae (Sulzer) nymphs, a sensitive strain reared indoors.
(§1) Preparation of the pesticide solution: according to different test requirements, the test samples were accurately weighed respectively with an electronic analytical balance. The technical pesticides were dissolved in acetone, and then diluted with 0.1% Tween 80 water into a series of pesticide solutions with a certain concentration gradient according to the experimental design dosage.
(§2) Experimental method: first, cabbage leaves with uniform and consistent Myzus persicae (Sulzer) were selected, with about 30-40 insects on each leaf. Then, they were evenly sprayed with the pesticide solution in the order from low dosage to high dosage according to the experimental design, with 1.5 mL of the solution for each leaf and 3 replicates for each treatment. In addition, a blank control was set up.
(§3) The treated test materials were placed in an observation room, and the temperature, humidity and illumination of the observation room could be adjusted as needed. The number of dead and live insects was investigated 48 hours later. […] Then, the co-toxicity coefficient of each ratio was calculated using the Sun Y-P method to evaluate the mixing effect (the same as in Example 1).

[5] = system: 3rd-instar larvae of Yponomeuta evonymallus (Linnaeus); test: Joint toxicity of I-72 + thiamethoxam, Example 66, Table 66; conditions: A = compound I-72, B = thiamethoxam; leaf dipping; 72 hours
Procedure: Test target: 3rd-instar larvae of Yponomeuta evonymallus (Linnaeus).
as §1
Experimental method: first, Hylotelephium spectabile leaves were selected and dipped in the prepared pesticide solution for 10 s in the order from low dosage to high dosage according to the experimental design. After natural air-drying in the shade, they were placed in a 9-cm-diameter Petri dish with filter paper, and uniform and healthy test insects were introduced, with 10 insects for each treatment and 3 replicates for each treatment. In addition, a blank control was set up.
The treated test materials were placed in an observation room, and the temperature, humidity and illumination of the observation room could be adjusted as needed. The number of dead and live insects was investigated 72 hours later.

[6] = system: Aphis citricola van der Goot nymphs; test: Joint toxicity of I-72 + nicotine, Example 72, Table 72; conditions: A = compound I-72, B = nicotine, apple leaf spraying, 48 hours
Procedure: Test target: Aphis citricola van der Goot nymphs.
as §1
as §2, with “apple” for “cabbage”, “Aphis citricola van der Goot” for “Myzus persicae (Sulzer)”, “mL” for “mL of the solution”
as §3

[7] = system: Thrips flavus Schrank nymphs; test: Joint toxicity of I-72 + flonicamid, Example 78, Table 78; conditions: Thrips flavus; A = compound I-72, B = flonicamid; eggplant seedling spraying; 48 hours; read-out: LC50
Procedure: Test target: Thrips flavus Schrank nymphs.
as §1
Experimental method: first, eggplant seedlings with Thrips flavus Schrank were selected, and the base number was counted. Then, uniform spraying was performed with the pesticide solution in the order from low to high doses according to the experimental design, with 2 mL for each seedling and 3 replicates for each treatment. In addition, a blank control was set up.
as §3

Structure (SMILES): CN(C(=O)c1ccc2c(c1)OC(F)(F)O2)c1cccc(C(=O)Nc2c(Br)cc(C(F)(C(F)(F)F)C(F)(F)F)cc2OC(F)F)c1F [Compound I-72]
- mortality at 0.05 µg/mL ([1]; single agent 0.05 mg/L): 10.4%
- mortality at 0.1 µg/mL ([1]; single agent 0.1 mg/L): 25%
- mortality at 1 µg/mL ([1]; single agent 1 mg/L): 62.5%
- mortality at 2 µg/mL ([1]; single agent 2 mg/L): 72.9%
- mortality at 5 µg/mL ([1]; single agent 5 mg/L): 81.2%
- LC50 [2]: 1.94 µg/mL
- LC50 [3]: 0.881 µg/mL
- LC50 [4]: 8.14 µg/mL
- LC50 [5]: 4.5752 µg/mL
- LC50 [6]: 3.06 µg/mL
- LC50 [7]: 1.9 µg/mL
